pIC50: −log10 of the molar value. Like-named read-outs stand apart in the source and are kept apart here. Values belong to the compound of their own block, whether it stands above or below them.
Assays:
Human factor Xa = Human factor Xa (Homo sapiens, UniProt P00742); experiment: Xa Assay; type: biochemical; design: purchased Enzyme Research Laboratories, South Bend Ind
[1] = target: T1, recombinant soluble tissue factor and recombinant human factor VIIa (TF-VIIa) (Homo sapiens, UniProt P08709); experiment: TF-VIIa Assay; type: biochemical
T1 construct: conversion of coagulation factor VII to VIIa by Xa; purchased American Diagnostica, Greenwich Conn; host or cells: VIIa purchased; soluble TF made in house in E. coli
T1 sequence (P08709 61-212 limits assumed): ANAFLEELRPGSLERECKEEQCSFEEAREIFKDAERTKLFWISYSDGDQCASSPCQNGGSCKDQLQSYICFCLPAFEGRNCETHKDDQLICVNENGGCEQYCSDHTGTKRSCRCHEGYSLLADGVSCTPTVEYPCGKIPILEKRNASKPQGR
T1 sequence (P08709 213-466 limits assumed): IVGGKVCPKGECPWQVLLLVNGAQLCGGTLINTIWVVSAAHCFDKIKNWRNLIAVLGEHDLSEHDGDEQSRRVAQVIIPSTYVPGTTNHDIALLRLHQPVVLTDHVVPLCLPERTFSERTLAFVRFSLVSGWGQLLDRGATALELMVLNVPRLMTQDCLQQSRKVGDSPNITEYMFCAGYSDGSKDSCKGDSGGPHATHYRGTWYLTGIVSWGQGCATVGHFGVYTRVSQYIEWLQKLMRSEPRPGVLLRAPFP
T1 sequence (P13726 33-251 partner limits assumed): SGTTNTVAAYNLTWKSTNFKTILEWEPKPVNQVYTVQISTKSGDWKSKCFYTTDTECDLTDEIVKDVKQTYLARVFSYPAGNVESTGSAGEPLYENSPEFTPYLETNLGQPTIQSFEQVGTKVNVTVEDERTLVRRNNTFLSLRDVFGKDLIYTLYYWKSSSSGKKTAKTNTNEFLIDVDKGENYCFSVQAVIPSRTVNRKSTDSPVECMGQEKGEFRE

Sequence of Human factor Xa (P00742 41-179 limits assumed): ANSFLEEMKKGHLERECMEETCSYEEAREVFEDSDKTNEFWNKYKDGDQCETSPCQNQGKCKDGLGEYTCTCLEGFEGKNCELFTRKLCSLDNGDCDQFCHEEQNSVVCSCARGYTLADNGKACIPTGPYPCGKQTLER
Sequence of Human factor Xa (P00742 235-488 limits assumed): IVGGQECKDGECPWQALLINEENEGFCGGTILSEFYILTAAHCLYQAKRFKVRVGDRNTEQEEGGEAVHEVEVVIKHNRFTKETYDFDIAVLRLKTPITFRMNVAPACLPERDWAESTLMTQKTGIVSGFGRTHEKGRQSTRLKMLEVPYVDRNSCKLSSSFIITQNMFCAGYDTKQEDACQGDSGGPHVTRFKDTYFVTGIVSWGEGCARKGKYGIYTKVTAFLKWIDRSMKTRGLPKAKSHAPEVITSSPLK

% Inhibition Factor Xa at 100 μM (Human factor Xa; at 100 μM inhibitor): 43% at 100 μM
pIC50 ([1]; read-out: IC50 TF-VIIa): 7.07
Structure (SMILES): CC(C)Nc1nc(Cl)c(-c2cc(N)cc(C(=O)NCc3ccc(Cl)cc3Cl)c2)n(CC(=O)NCc2ccc(C(=N)N)cc2)c1=O [Example 128-5]

% Inhibition Factor Xa (30 µM) (Human factor Xa; at 30 µM inhibitor): 17%
% Inhibition TF-VIIa (30 µM) ([1]; at 30 µM inhibitor): 48%
Structure (SMILES): N=C(N)c1ccc(CNC(=O)Cn2c(-c3ccccc3)c(Cl)nc(NCC(F)(F)F)c2=O)cc1 [1507-41]

% Inhibition Factor Xa (100 µM) (Human factor Xa; inhibitor at 100 µM): 0%
% Inhibition TF-VIIa (100 µM) ([1]; inhibitor at 100 µM): 0%
Structure (SMILES): O=C(Cn1c(Cc2ccccc2)c(Cl)nc(NCCc2cccnc2)c1=O)NCCc1ccncc1 [Example E-0061]

inhibition at 100 µM (Human factor Xa; at 100 μM inhibitor): 24%
pIC50 ([1]; read-out: IC50 TF-VIIa): 8.13
Structure (SMILES): CC(C)CNC(=O)c1cc(N)cc(-c2c(Cl)nc(NC(C)C)c(=O)n2CC(=O)NCc2ccc(C(=N)N)cc2)c1 [Example 128-14]

Structure (SMILES): O=C(Cn1c(-c2ccc(-c3ccccc3)cc2)c(Cl)nc(NCCc2ccccc2)c1=O)NCCc1ccncc1 [Example E-0050]
% Inhibition Factor Xa (100 µM) (Human factor Xa): 0%
% Inhibition TF-VIIa (100 µM) [1]: 0%

% Inhibition Factor Xa (100 µM) (Human factor Xa; inhibitor at 100 µM): 0%
% Inhibition TF-VIIa (100 µM) ([1]; inhibitor at 100 µM): 0%
Structure (SMILES): Cc1c(Cl)nc(NCCc2ccccc2)c(=O)n1CC(=O)NCCc1ccncc1 [Example E-0002]

% Inhibition Factor Xa (100 µM) (Human factor Xa; inhibitor at 100 µM): 5%
% Inhibition TF-VIIa (100 µM) ([1]; inhibitor at 100 µM): 3%
Structure (SMILES): COc1ccc(-c2c(Cl)nc(NCCc3cccc(Cl)c3)c(=O)n2CC(=O)NCCc2cccnc2)cc1 [Example E-0104]

Structure (SMILES): O=C(Cn1c(-c2ccc(-c3ccccc3)cc2)c(Cl)nc(NCCc2cccnc2)c1=O)NCCc1ccncc1 [Example E-0053]
% Inhibition Factor Xa (100 µM) (Human factor Xa): 0%
% Inhibition TF-VIIa (100 µM) [1]: 0%

% Inhibition Factor Xa (30 µM) (Human factor Xa; at 30 µM inhibitor): 22%
% Inhibition TF-VIIa (30 µM) ([1]; at 30 µM inhibitor): 37%
Structure (SMILES): COc1ccc(-c2c(Cl)nc(NCc3ccncc3)c(=O)n2CC(=O)NCc2ccc(C(=N)N)cc2)cc1 [1471-35]

inhibition at 100 µM (Human factor Xa; at 100 μM inhibitor): 15%
pIC50 ([1]; read-out: IC50 TF-VIIa): 4.97
Structure (SMILES): N=C(N)c1ccc(C(=O)NCCn2c(-c3cccc(N)c3)c(Cl)nc(NC3CCC3)c2=O)cc1 [Example 136]

inhibition at 100 µM (Human factor Xa; at 100 μM inhibitor): 22%
pIC50 ([1]; cell adds 'at 100 μM'): 7.24
Structure (SMILES): CC(CNc1nc(Cl)c(-c2cccc(N)c2)n(CC(=O)NCc2ccc(C(=N)N)cc2)c1=O)C(=O)O (stereo not drawn) [Example 129]

% Inhibition Factor Xa (30 µM) (Human factor Xa; at 30 µM inhibitor): 6% @ 30
% Inhibition TF-VIIa (30 µM) ([1]; at 30 µM inhibitor): 41% @ 30
Structure (SMILES): N=C(N)c1ccc(CNC(=O)Cn2c(Cc3ccccc3)c(Cl)nc(NCCc3ccccc3)c2=O)cc1 [Example 20]

% Inhibition Factor Xa (100 µM) (Human factor Xa; inhibitor at 100 µM): 0%
% Inhibition TF-VIIa (100 µM) ([1]; inhibitor at 100 µM): 0%
Structure (SMILES): O=C(Cn1c(-c2ccccc2)c(Cl)nc(NCc2ccncc2)c1=O)NCCc1ccncc1 [Example E-0016]

% Inhibition Factor Xa (100 µM) (Human factor Xa; inhibitor at 100 µM): 0%
% Inhibition TF-VIIa (100 µM) ([1]; inhibitor at 100 µM): 0%
Structure (SMILES): O=C(Cn1c(-c2ccccc2)c(Cl)nc(NCCc2ccncc2)c1=O)NCCc1ccncc1 [Example E-0014]

% Inhibition Factor Xa (100 µM) (Human factor Xa; inhibitor at 100 µM): 0%
% Inhibition TF-VIIa (100 µM) ([1]; inhibitor at 100 µM): 0%
Structure (SMILES): O=C(Cn1c(-c2ccc3c(c2)OCO3)c(Cl)nc(NCCN2CCOCC2)c1=O)NCCc1ccncc1 [Example E-0047]

% Inhibition Factor Xa (30 µM) (Human factor Xa; at 30 µM): 0%
% Inhibition TF-VIIa (30 µM) ([1]; at 30 µM): 30%
Structure (SMILES): N=C(N)c1ccc(CNC(=O)C(Cc2ccccc2)n2c(-c3ccccc3)c(Cl)nc(NCCc3ccccc3)c2=O)cc1 (stereo not drawn) [Example 1517-14]

% Inhibition Factor Xa (100 µM) (Human factor Xa; inhibitor at 100 µM): 0%
% Inhibition TF-VIIa (100 µM) ([1]; inhibitor at 100 µM): 0%
Structure (SMILES): O=C(Cn1c(CCc2ccccc2)c(Cl)nc(NCCc2ccccc2)c1=O)NCCc1ccncc1 [Example E-0066]

% Inhibition Factor Xa (30 µM) (Human factor Xa; at 30 µM inhibitor): 0%
% Inhibition TF-VIIa (30 µM) ([1]; at 30 µM inhibitor): 4%
Structure (SMILES): CCc1c(Cl)nc(NCCc2cccc(Cl)c2)c(=O)n1CC(=O)NCc1ccc(C(=N)N)cc1 [1471-62]

% Inhibition Factor Xa (100 µM) (Human factor Xa; inhibitor at 100 µM): 0%
% Inhibition TF-VIIa (100 µM) ([1]; inhibitor at 100 µM): 0%
Structure (SMILES): O=C(Cn1c(-c2ccc3c(c2)OCO3)c(Cl)nc(NCCc2cccnc2)c1=O)NCCc1ccncc1 [Example E-0045]

Structure (SMILES): N=C(N)c1ccc(CNC(=O)Cn2c(-c3ccc(-c4ccccc4)cc3)c(Cl)nc(NCCc3ccc(Cl)cc3)c2=O)cc1 [Example 22]
% Inhibition Factor Xa (30 µM) (Human factor Xa): 13% @ 30
% Inhibition TF-VIIa (30 µM) [1]: 0% @ 30

% Inhibition Factor Xa (100 µM) (Human factor Xa; inhibitor at 100 µM): 1%
% Inhibition TF-VIIa (100 µM) ([1]; inhibitor at 100 µM): 0%
Structure (SMILES): Cc1c(Cl)nc(NCc2ccccc2)c(=O)n1CC(=O)NCCc1ccncc1 [Example E-0001]

% Inhibition Factor Xa (100 µM) (Human factor Xa; inhibitor at 100 µM): 0%
% Inhibition TF-VIIa (100 µM) ([1]; inhibitor at 100 µM): 0%
Structure (SMILES): O=C(Cn1c(-c2cccc(Cl)c2)c(Cl)nc(NCc2ccccc2)c1=O)NCCc1ccncc1 [Example E-0085]

% Inhibition Factor Xa (30 µM) (Human factor Xa; at 30 µM inhibitor): 16%
% Inhibition TF-VIIa (30 µM) ([1]; at 30 µM inhibitor): 12%
Structure (SMILES): N=C(N)c1ccc(CNC(=O)Cn2c(-c3ccc(-c4ccccc4)cc3)c(Cl)nc(NCc3ccncc3)c2=O)cc1 [1471-67]

% Inhibition Factor Xa (30 µM) (Human factor Xa; at 30 µM inhibitor): 5% @ 30
% Inhibition TF-VIIa (30 µM) ([1]; at 30 µM inhibitor): 5% @ 30
Structure (SMILES): Nc1cccc(-c2c(Cl)nc(NC3CCC3)c(=O)n2CC(=O)NCCc2ccccc2)c1 [Example 89]

Structure (SMILES): O=C(Cn1c(-c2ccc(-c3ccccc3)cc2)c(Cl)nc(NCCc2ccccc2)c1=O)NCCc1ccncc1 [Example E-0112]
% Inhibition Factor Xa (100 µM) (Human factor Xa): 1%
% Inhibition TF-VIIa (100 µM) [1]: 11%

% Inhibition Factor Xa (100 µM) (Human factor Xa; inhibitor at 100 µM): 0%
% Inhibition TF-VIIa (100 µM) ([1]; inhibitor at 100 µM): 0%
Structure (SMILES): O=C(Cn1c(CCc2ccccc2)c(Cl)nc(NCCc2cccc(Cl)c2)c1=O)NCCc1ccncc1 [Example E-0067]

% Inhibition Factor Xa (100 µM) (Human factor Xa; inhibitor at 100 µM): 2%
% Inhibition TF-VIIa (100 µM) ([1]; inhibitor at 100 µM): 2%
Structure (SMILES): O=C(Cn1c(-c2cccc(Cl)c2)c(Cl)nc(NCCc2ccc(Cl)cc2)c1=O)NCCc1ccncc1 [Example E-0094]

% Inhibition Factor Xa (100 µM) (Human factor Xa; inhibitor at 100 µM): 0%
% Inhibition TF-VIIa (100 µM) ([1]; inhibitor at 100 µM): 0%
Structure (SMILES): O=C(Cn1c(-c2ccc3c(c2)OCO3)c(Cl)nc(NCc2ccccc2)c1=O)NCCc1ccncc1 [Example E-0041]

% Inhibition Factor Xa (30 µM) (Human factor Xa; at 30 µM): 0%
% Inhibition TF-VIIa (30 µM) ([1]; at 30 µM): 33%
Structure (SMILES): CCCCNc1nc(Cl)c(-c2ccccc2)n(CC(=O)NCc2ccc(C(=N)N)cc2)c1=O [Example 1517-35]

inhibition at 100 µM (Human factor Xa; at 100 μM inhibitor): 40%
pIC50 ([1]; read-out: IC50 TF-VIIa): 8.09
Structure (SMILES): CC(C)Nc1nc(Cl)c(-c2cc(N)cc(C(=O)NC(C)c3ccccc3)c2)n(CC(=O)NCc2ccc(C(=N)N)cc2)c1=O (stereo not drawn) [Example 128-3]

% Inhibition Factor Xa (30 µM) (Human factor Xa; at 30 µM inhibitor): 0%
% Inhibition TF-VIIa (30 µM) ([1]; at 30 µM inhibitor): 1%
Structure (SMILES): CC(C)Nc1nc(Cl)c(-c2cccc([N+](=O)[O-])c2)n(CC(=O)NCc2ccc(C(N)=NO)cc2)c1=O [Example 61]

% Inhibition Factor Xa (100 µM) (Human factor Xa; inhibitor at 100 µM): 4%
% Inhibition TF-VIIa (100 µM) ([1]; inhibitor at 100 µM): 4%
Structure (SMILES): O=C(Cn1c(-c2cccc(Cl)c2)c(Cl)nc(NCCc2ccc(Cl)cc2)c1=O)NCCc1ccncc1 [Example E-0082]

% Inhibition Factor Xa (30 µM) (Human factor Xa; at 30 µM inhibitor): 6%
inhibition at 30 µM ([1]; 1 h, at 30 µM inhibitor): 7%
Structure (SMILES): NC1=NCCSc2cc(CNC(=O)Cn3c(-c4cccc(N)c4)c(Cl)nc(NC4CCC4)c3=O)ccc21 [Example 154]

% Inhibition Factor Xa (30 µM) (Human factor Xa; at 30 µM inhibitor): 7%
% Inhibition TF-VIIa (30 µM) ([1]; at 30 µM inhibitor): 39%
Structure (SMILES): COc1ccc(-c2c(Cl)nc(NCCc3ccncc3)c(=O)n2CC(=O)NCc2ccc(C(=N)N)cc2)cc1 [1471-37]

% Inhibition Factor Xa (100 µM) (Human factor Xa; inhibitor at 100 µM): 3%
% Inhibition TF-VIIa (100 µM) ([1]; inhibitor at 100 µM): 0%
Structure (SMILES): O=C(Cn1c(-c2cccc(Cl)c2)c(Cl)nc(NCCc2ccccc2)c1=O)NCCc1ccncc1 [Example E-0088]

% Inhibition Factor Xa (100 µM) (Human factor Xa; inhibitor at 100 µM): 0%
% Inhibition TF-VIIa (100 µM) ([1]; inhibitor at 100 µM): 0%
Structure (SMILES): O=C(Cn1c(CCc2ccccc2)c(Cl)nc(NCc2ccccc2)c1=O)NCCc1ccncc1 [Example E-0065]

inhibition at 100 µM (Human factor Xa; at 100 μM inhibitor): 25%
pIC50 ([1]; read-out: IC50 TF-VIIa): 7.66
Structure (SMILES): CC(C)Nc1nc(Cl)c(-c2cc(N)cc(C(N)=O)c2)n(CC(=O)NCc2ccc(C(=N)N)cc2)c1=O [Example 128-1]

% Inhibition Factor Xa (100 µM) (Human factor Xa; inhibitor at 100 µM): 0%
% Inhibition TF-VIIa (100 µM) ([1]; inhibitor at 100 µM): 0%
Structure (SMILES): O=C(Cn1c(-c2ccc(Cl)cc2)c(Cl)nc(NCCc2ccncc2)c1=O)NCCc1ccncc1 [Example E-0030]

inhibition at 100 µM (Human factor Xa; at 100 μM inhibitor): 39%
pIC50 ([1]; read-out: IC50 TF-VIIa): 7.48
Structure (SMILES): COc1ccc(CCNC(=O)c2cc(N)cc(-c3c(Cl)nc(NC(C)C)c(=O)n3CC(=O)NCc3ccc(C(=N)N)cc3)c2)cc1 [Example 128-20]

— US6908919B2, “Substituted polycyclic aryl and heteroaryl pyrazinones useful for selective inhibition of the coagulation cascade” (Pharmacia Corporation, priority 1999, dated 2005)
